Data: ChEMBL document CHEMBL5352443, “S-acylthioalkyl ester (SATE)-based prodrugs of deoxyribose cyclic dinucleotides (dCDNs) as the STING agonist for antitumor immunotherapy” (Eur J Med Chem, 2022)
Activity calls are given as the source filed them. The rule behind the calls is not given here.

Experiments:
[1] = Stability of the compound in 20% fetal bovine serum assessed as drug degradation at 100 uM measured at 72 hrs by HPLC analysis; type: ADME, cell-free, Bos taurus; settings: cattle
CT26 = assay: Antitumor activity against mouse CT26 cells expressing high luciferase implanted in BALB/c mouse assessed as darkening of tumor tissue at 0.5 mg/kg, IT administered intratumorally on day 1,3,5,7 and measured on day 1,9,14,24 by fluorescence imaging analysis; type: functional, organism-based; settings: route it(Intratumoral), time 24.0 day
[2] = Toxicity in BALB/c mouse implanted with mouse CT26 cells expressing high luciferase assessed as mouse survival rate at 0.5 mg/kg, IT administered intratumorally on day 1,3,5,7 and measured at 50 days; type: organism-based; settings: in vivo, route it(Intratumoral), time 50 day
[3] = target: T1, Stimulator of interferon genes protein (Homo sapiens, UniProt Q86WV6); assay: Agonist activity at STING in human THP-1 reporter cells incubated for 24 hrs by QUANTI-Luc assay; type: cell-based
T1 sequence (Q86WV6 whole entry): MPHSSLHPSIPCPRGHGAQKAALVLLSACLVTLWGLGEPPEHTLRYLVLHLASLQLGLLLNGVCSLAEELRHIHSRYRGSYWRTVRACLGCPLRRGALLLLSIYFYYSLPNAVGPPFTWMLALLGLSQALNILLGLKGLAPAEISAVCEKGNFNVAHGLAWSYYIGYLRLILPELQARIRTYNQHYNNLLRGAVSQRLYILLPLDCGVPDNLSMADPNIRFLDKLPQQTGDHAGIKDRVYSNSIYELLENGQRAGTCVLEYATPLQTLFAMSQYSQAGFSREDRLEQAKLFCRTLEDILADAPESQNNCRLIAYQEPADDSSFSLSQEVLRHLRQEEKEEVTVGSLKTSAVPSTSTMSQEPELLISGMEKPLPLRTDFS

[4] = target: T1, Stimulator of interferon genes protein; assay: Agonist activity at STING in human THP-1 reporter cells incubated for 4 hrs in presence of lipofectamine 2000 by QUANTI-Luc assay; type: cell-based
[5] = target: T1, Stimulator of interferon genes protein; assay: Agonist activity at STING in PMA-treated human THP-1 reporter cells incubated for 30 mins in presence of digitonin by QUANTI-Luc assay; type: cell-based

## Nc1nc2c(ncn2[C@@H]2O[C@@H]3COP(=O)(O)O[C@H]4[C@@H](O)[C@H](n5cnc6c(N)ncnc65)O[C@@H]4COP(=O)(O)O[C@@H]2[C@@H]3O)c(=O)[nH]1
[1]; 20% fetal bovine serum, read-out: Drug degradation
  metabolised at 72 h, 100 µM: 80%

## Nc1ncnc2c1ncn2[C@@H]1O[C@@H]2COP(=O)(S)O[C@@H]3[C@H](O)[C@@H](COP(=O)(S)O[C@H]2[C@H]1O)O[C@H]3n1cnc2c(N)ncnc21 (some centres not stated)
CT26
  Activity: Active
[2]
  survival at 1200 h: 75%

## Nc1ncnc2c1ncn2[C@H]1C[C@@H]2OP(=O)(O)OC[C@H]3O[C@@H](n4cnc5c(N)ncnc54)C[C@@H]3OP(=O)(O)OC[C@H]2O1
[3]
  EC50: 41300 nM
[4]
  EC50: 673 nM
[5]
  EC50: 317 nM
[1]; serum, 72 h, 100 µM
  Stability: Stable
